{
  "source": "patent US9241965B2",
  "about": "“Composition containing Prunus mume extract for external application to skin” (AMOREPACIFIC CORPORATION, priority 2010, dated 2016)",
  "origin": "cited, not measured here",
  "target": "T1, TRPV1 (Homo sapiens, UniProt Q8NER1)",
  "T1 construct": "endogenous in cells; host or cells: HaCAT cells",
  "T1 sequence (Q8NER1 whole entry, species assumed)": "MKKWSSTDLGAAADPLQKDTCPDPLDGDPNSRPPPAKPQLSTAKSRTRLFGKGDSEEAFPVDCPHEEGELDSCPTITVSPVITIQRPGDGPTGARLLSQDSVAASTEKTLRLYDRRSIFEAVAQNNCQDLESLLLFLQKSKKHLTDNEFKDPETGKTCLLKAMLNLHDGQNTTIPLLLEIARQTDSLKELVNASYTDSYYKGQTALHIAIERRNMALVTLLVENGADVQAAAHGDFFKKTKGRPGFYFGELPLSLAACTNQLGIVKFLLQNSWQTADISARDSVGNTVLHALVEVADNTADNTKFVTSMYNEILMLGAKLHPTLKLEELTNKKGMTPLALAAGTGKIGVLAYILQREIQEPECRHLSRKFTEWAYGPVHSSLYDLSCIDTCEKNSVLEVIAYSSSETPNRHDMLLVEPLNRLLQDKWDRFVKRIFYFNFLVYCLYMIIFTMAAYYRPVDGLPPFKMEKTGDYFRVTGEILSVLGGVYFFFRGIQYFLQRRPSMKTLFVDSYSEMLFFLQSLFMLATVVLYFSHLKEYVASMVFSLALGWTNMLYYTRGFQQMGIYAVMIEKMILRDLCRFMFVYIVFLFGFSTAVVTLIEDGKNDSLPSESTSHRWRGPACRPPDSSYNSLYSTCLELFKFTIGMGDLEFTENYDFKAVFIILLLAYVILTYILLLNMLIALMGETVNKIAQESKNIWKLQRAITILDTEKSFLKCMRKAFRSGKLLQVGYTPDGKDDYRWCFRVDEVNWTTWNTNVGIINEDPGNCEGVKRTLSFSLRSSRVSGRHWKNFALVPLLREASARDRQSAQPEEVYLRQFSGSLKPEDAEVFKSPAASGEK",
  "conditions": "skin temperature about 42° C.",
  "data": [
    {"molecule": "Oc1cc2c(cc1O)CN(C(=S)NCCc1ccc(Cl)cc1)CCC2", "note": "[capsazepine]", "values": [
      {"measurement": "rate of skin barrier recovery", "value": "restores the rate of skin barrier recovery to normal level"}
    ]}
  ]
}
